Measured values published in PubChem BioAssay AID2060900 (Molecular Pharmacology Branch, DTP, NCI, 2025).

Tested on: 521955-158-R2-J5-PDC complex spheroids, viability
Assay: Anticancer human tumor 521955-158-R2-J5-PDC patient-derived pancreatic carcinoma cell line growth inhibition [RAS]
Conditions: for IC50: curve of first compound; for viability, T/C: stronger effect = lower value
From the text: RAS pathway inhibitors in Combinations in Complex Spheroids
A high-throughput screen of multi-cell type tumor spheroids was designed to identify active combinations of RAS pathway inhibitors and targeted small molecules. Complex spheroids include a stromal component modeled by human endothelial cells (HUVEC) and fibroblasts modeled by human mesenchymal stem cells (MSCs). The concentration ranges selected for each drug and investigational agent were based upon clinically achievable concentrations if the clinical Cmax of the agent was known.
Compounds. The drugs and investigational agents: abemaciclib (NSC768073), cobimetinib (NSC768068), divarasib (GDC6063, NSC841802), docetaxel (NSC628503), GDC-1971 (RLY-1971, NSC841576), gemcitabine (NSC613327), inavolisib (NSC800729), ipatasertib (NSC767898), KB-0742 (NSC834161), MRTX-1133 (NSC836407), osimertinib (NSC779217), RMC-4630 (NSC839698), RMC-6236 (NSC851965), RMC-6291 (NSC852671), Ro-3306 (NSC812927), sapanisertib (NSC764658), SN-38 (NSC673596), staurosporine (NSC755774), SY5609 (NSC837396), and tovorafenib (DAY101, NSC766906), were obtained from the National Cancer Institute (NCI) Developmental Therapeutics Program Chemical Repository. The FDA-approved anticancer drug set is available from the NCI Developmental Therapeutics Program. […] The stock solutions were prepared in dimethyl sulfoxide (DMSO, Sigma-Aldrich, St. Louis, MO, cat. D2650) at 800-fold the tested concentration and stored at -70 degrees C prior to their use. All drugs and investigational agents were tested over a range starting from a high concentration at or near the clinical Cmax and decreasing in half-log increments. If the clinical Cmax for an agent had not been determined, the highest concentration tested was 10 microM.
Cell Culture. All cells were maintained in an incubator at 37 degrees C and 5% CO2 with 95% humidity. The PDC lines were cultured according to standard operating procedures established by the NCI PDMR. All PDCs were thawed and cultured in Matrigel-coated flasks prepared with a working solution of 1X Ham's F-12 nutrient mix, without supplementation (Invitrogen, Waltham, MA, cat. 11765054), 100 U/mL penicillin-streptomycin (Invitrogen, cat. 15140122), and 2.5% Matrigel (Corning Inc., Corning, NY, cat. 354248) for the first three passages. The 362531-283-R-J2-PDC and 782815-120-R-J1-PDC lines were cultured in 6C/Colon 1B media, which includes advanced DMEM/F-12 (Thermo Fisher Scientific, cat. 12634028), 10 mM HEPES (Thermo Fisher Scientific, cat. 15630080), 1X GlutaMAX supplement (Thermo Fisher Scientific, cat. 35050061), 0.1 mg/mL primocin (InvivoGen, San Diego, CA, cat. ant-pm-2), 10% defined fetal bovine serum, heat inactivated (HyClone Laboratories Inc., Logan, UT, cat. SH30070.03HI), 50% L-WRN conditioned media (ATCC, cat. CRL-3276), 1.25 mM N-Acetyl-L-cysteine (Sigma-Aldrich, cat. A9165), 10 mM nicotinamide (Sigma-Aldrich, cat. N0636), 1X B-27 supplement (Thermo Fisher Scientific, cat. 17504044), 1X N-2 supplement (Thermo Fisher Scientific, cat. 17502048), 50 ng/mL human EGF (Thermo Fisher Scientific, cat. PHG0311), and 10 microM Y-27632 dihydrochloride (Tocris Bioscience, cat. 1254). The K12877-001-R-J1-PDC line was cultured in 6I media, which includes all 6C/Colon 1B media plus 10 ng/mL human FGF-10 (PeproTech, cat. 100-26), 1 ng/mL human FGF-2 (PeproTech, cat. 100-18B), 1 µM prostaglandin E2 (Tocris Bioscience, cat. 2296), […] hydrocortisone (Sigma-Aldrich, cat. H4001), and […] bovine insulin (Sigma-Aldrich, cat. I6634). The K86415-001-R-J1-PDC line was cultured in 6D media, which includes all 6C/Colon 1B media components minus the L-WRN conditioned media. The 485176-168-R4-J1-PDC was cultured in PANC media, which includes all 6C/Colon 1B media plus 100 ng/mL human FGF-10 (PeproTech, cat. 100-26), 500 nM SB-431542 (Selleckchem, cat. S1067), and 10 nM gastrin (Tocris Bioscience, cat. 3006). […]

[1] = second compound 0.000949 µM, first compound 0.00316 µM
[2] = second compound 0.000949 µM, first compound 0.01 µM
[3] = second compound 0.000949 µM, first compound 0.0316 µM
[4] = second compound 0.000949 µM, first compound 0.1 µM
[5] = second compound 0.000949 µM, first compound 0.316 µM
[6] = second compound 0.000949 µM, first compound 1 µM
[7] = second compound 0.003 µM, first compound 0.00316 µM
[8] = second compound 0.003 µM, first compound 0.01 µM
[9] = second compound 0.003 µM, first compound 0.0316 µM
[10] = second compound 0.003 µM, first compound 0.1 µM
[11] = second compound 0.003 µM, first compound 0.316 µM
[12] = second compound 0.003 µM, first compound 1 µM
[13] = second compound 0.00949 µM, first compound 0.00316 µM
[14] = second compound 0.00949 µM, first compound 0.01 µM
[15] = second compound 0.00949 µM, first compound 0.0316 µM
[16] = second compound 0.00949 µM, first compound 0.1 µM
[17] = second compound 0.00949 µM, first compound 0.316 µM
[18] = second compound 0.00949 µM, first compound 1 µM
[19] = second compound 0.03 µM, first compound 0.00316 µM
[20] = second compound 0.03 µM, first compound 0.01 µM
[21] = second compound 0.03 µM, first compound 0.0316 µM
[22] = second compound 0.03 µM, first compound 0.1 µM
[23] = second compound 0.03 µM, first compound 0.316 µM
[24] = second compound 0.03 µM, first compound 1 µM
[25] = second compound 0.0949 µM, first compound 0.00316 µM
[26] = second compound 0.0949 µM, first compound 0.01 µM
[27] = second compound 0.0949 µM, first compound 0.0316 µM
[28] = second compound 0.0949 µM, first compound 0.1 µM
[29] = second compound 0.0949 µM, first compound 0.316 µM
[30] = second compound 0.0949 µM, first compound 1 µM
[31] = second compound 0.3 µM, first compound 0.00316 µM
[32] = second compound 0.3 µM, first compound 0.01 µM
[33] = second compound 0.3 µM, first compound 0.0316 µM
[34] = second compound 0.3 µM, first compound 0.1 µM
[35] = second compound 0.3 µM, first compound 0.316 µM
[36] = second compound 0.3 µM, first compound 1 µM
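Note: compound exposure lasted seven days before the viability read.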
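Throughout, for viability, T/C: spheroids also contain HUVEC endothelial cells and mesenchymal stem cells as stroma.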

SMILES: CCN1CCN(Cc2ccc(Nc3ncc(F)c(-c4cc(F)c5nc(C)n(C(C)C)c5c4)n3)nc2)CC1 + CCn1c(-c2cc(N3CCN(C)CC3)cnc2C(C)OC)c2c3cc(ccc31)-c1csc(n1)CC(NC(=O)C1CC1C)C(=O)N1CCCC(N1)C(=O)OCC(C)(C)C2
- IC50 (second compound 0.000949 µM): < 3.16 nM
- IC50 (second compound 0.003 µM): < 3.16 nM
- IC50 (second compound 0.00949 µM): < 3.16 nM
- IC50 (second compound 0.03 µM): < 3.16 nM
- IC50 (second compound 0.0949 µM): < 3.16 nM
- IC50 (second compound 0.3 µM): < 3.16 nM
- viability, T/C [1]: 43.2%
- viability, T/C [2]: 39.4%
- viability, T/C [3]: 39.4%
- viability, T/C [4]: 31.6%
- viability, T/C [5]: 43.6%
- viability, T/C [6]: 47.6%
- viability, T/C [7]: 39.4%
- viability, T/C [8]: 40.9%
- viability, T/C [9]: 41.2%
- viability, T/C [10]: 39.2%
- viability, T/C [11]: 37.9%
- viability, T/C [12]: 36.6%
- viability, T/C [13]: 35.8%
- viability, T/C [14]: 30.1%
- viability, T/C [15]: 28.4%
- viability, T/C [16]: 22.8%
- viability, T/C [17]: 27.5%
- viability, T/C [18]: 25.9%
- viability, T/C [19]: 23%
- viability, T/C [20]: 18.4%
- viability, T/C [21]: 17%
- viability, T/C [22]: 16.8%
- viability, T/C [23]: 16.4%
- viability, T/C [24]: 16.5%
- viability, T/C [25]: 12.1%
- viability, T/C [26]: 11%
- viability, T/C [27]: 11.4%
- viability, T/C [28]: 8.7%
- viability, T/C [29]: 13.6%
- viability, T/C [30]: 14.8%
- viability, T/C [31]: 9.79%
- viability, T/C [32]: 8.72%
- viability, T/C [33]: 10.5%
- viability, T/C [34]: 10%
- viability, T/C [35]: 13.9%
- viability, T/C [36]: 13.1%

SMILES: C[C@@H](NC(=O)c1ncnc(N)c1Cl)c1ncc(C(=O)Nc2cc(C(F)(F)F)c(Cl)cn2)s1 + CCn1c(-c2cc(N3CCN(C)CC3)cnc2C(C)OC)c2c3cc(ccc31)-c1csc(n1)CC(NC(=O)C1CC1C)C(=O)N1CCCC(N1)C(=O)OCC(C)(C)C2
- IC50 (second compound 0.000949 µM): < 31.6 nM
- IC50 (second compound 0.003 µM): < 31.6 nM
- IC50 (second compound 0.00949 µM): < 31.6 nM
- IC50 (second compound 0.03 µM): < 31.6 nM
- IC50 (second compound 0.0949 µM): < 31.6 nM
- IC50 (second compound 0.3 µM): < 31.6 nM
- viability, T/C [3]: 49.2%
- viability, T/C [4]: 50.3%
- viability, T/C [5]: 50.4%
- viability, T/C [6]: 48.9%
- viability, T/C (second compound 0.000949 µM, first compound 3.16 µM): 51.3%
- viability, T/C (second compound 0.000949 µM, first compound 10 µM): 49%
- viability, T/C [9]: 39.9%
- viability, T/C [10]: 39.5%
- viability, T/C [11]: 45.2%
- viability, T/C [12]: 38.9%
- viability, T/C (second compound 0.003 µM, first compound 3.16 µM): 47.9%
- viability, T/C (second compound 0.003 µM, first compound 10 µM): 40.7%
- viability, T/C [15]: 39.9%
- viability, T/C [16]: 34.2%
- viability, T/C [17]: 40.8%
- viability, T/C [18]: 37%
- viability, T/C (second compound 0.00949 µM, first compound 3.16 µM): 36.4%
- viability, T/C (second compound 0.00949 µM, first compound 10 µM): 38.7%
- viability, T/C [21]: 26.9%
- viability, T/C [22]: 29.7%
- viability, T/C [23]: 31%
- viability, T/C [24]: 22.4%
- viability, T/C (second compound 0.03 µM, first compound 3.16 µM): 29.2%
- viability, T/C (second compound 0.03 µM, first compound 10 µM): 21.6%
- viability, T/C [27]: 11.8%
- viability, T/C [28]: 12.6%
- viability, T/C [29]: 18.7%
- viability, T/C [30]: 16.8%
- viability, T/C (second compound 0.0949 µM, first compound 3.16 µM): 17.8%
- viability, T/C (second compound 0.0949 µM, first compound 10 µM): 17.8%
- viability, T/C [33]: 11.7%
- viability, T/C [34]: 13.2%
- viability, T/C [35]: 13.5%
- viability, T/C [36]: 12.4%
- viability, T/C (second compound 0.3 µM, first compound 3.16 µM): 15.2%
- viability, T/C (second compound 0.3 µM, first compound 10 µM): 12.3%

SMILES: C=CC(=O)Nc1cc(Nc2nccc(-c3cn(C)c4ccccc34)n2)c(OC)cc1N(C)CCN(C)C + CCn1c(-c2cc(N3CCN(C)CC3)cnc2C(C)OC)c2c3cc(ccc31)-c1csc(n1)CC(NC(=O)C1CC1C)C(=O)N1CCCC(N1)C(=O)OCC(C)(C)C2
- IC50 (second compound 0.000949 µM): < 3.16 nM
- IC50 (second compound 0.003 µM): < 3.16 nM
- IC50 (second compound 0.00949 µM): < 3.16 nM
- IC50 (second compound 0.03 µM): < 3.16 nM
- IC50 (second compound 0.0949 µM): < 3.16 nM
- IC50 (second compound 0.3 µM): < 3.16 nM
- viability, T/C [1]: 44.6%
- viability, T/C [2]: 53.5%
- viability, T/C [3]: 38.4%
- viability, T/C [4]: 43.4%
- viability, T/C [5]: 35.7%
- viability, T/C [6]: 23.1%
- viability, T/C [7]: 40.9%
- viability, T/C [8]: 46.9%
- viability, T/C [9]: 50.2%
- viability, T/C [10]: 43.5%
- viability, T/C [11]: 35.3%
- viability, T/C [12]: 18.7%
- viability, T/C [13]: 41.3%
- viability, T/C [14]: 39.6%
- viability, T/C [15]: 27.2%
- viability, T/C [16]: 31.3%
- viability, T/C [17]: 21.5%
- viability, T/C [18]: 8.47%
- viability, T/C [19]: 19.2%
- viability, T/C [20]: 23.2%
- viability, T/C [21]: 19.4%
- viability, T/C [22]: 18.8%
- viability, T/C [23]: 14.4%
- viability, T/C [24]: 5.46%
- viability, T/C [25]: 16%
- viability, T/C [26]: 9.37%
- viability, T/C [27]: 12.8%
- viability, T/C [28]: 8.37%
- viability, T/C [29]: 11.6%
- viability, T/C [30]: 2.68%
- viability, T/C [31]: 16.4%
- viability, T/C [32]: 10.6%
- viability, T/C [33]: 9.7%
- viability, T/C [34]: 8.57%
- viability, T/C [35]: 6.24%
- viability, T/C [36]: 3.02%
